From patent US9278950B2, “Bicyclic aromatic carboxamide compounds useful as Pim kinase inhibitors” (Incyte Corporation, priority 2013, dated 2016)
pIC50: −log10 of the molar value.

How the values were obtained:
Type in all cases: biochemical
Pim-1 = target: T1, Pim-1 (Homo sapiens, UniProt P11309); experiment: Pim-1 kinase assay (Pim enzyme assays, Example A); settings: 1 mM ATP; read-out: Pim1 IC50
T1 construct: purchased Invitrogen PV3503
Description: (§1) Pim-1 and Pim-3 kinase assays-20 μL reactions were run in white 384 well polystyrene plates dotted with 0.8 μL compound/DMSO in the assay buffer (50 mM Tris, pH 7.5, 0.01% Tween-20, 5 mM mgCl2, 0.01% BSA, 5 mM DTT), containing 0.05 μM Biotin-labeled BAD peptide substrate (AnaSpec 62269), 1 mM ATP, and […] (Pim-1, Invitrogen PV3503) or […] (Pim-3, Millipore 14-738) enzyme for 1 h at 25° C. Reactions were stopped by addition of 10 μL STOP Buffer (150 mM Tris, pH=7.5, 150 mM NaCl, 75 mM EDTA, 0.01% Tween-20, 0.3% BSA,) supplemented with Phospho-Bad (Ser 12) Antibody (Cell Signaling 9291) diluted 666-fold, and Streptavidin donor beads (PerkinElmer 6760002) along with Protein-A acceptor beads (PerkinElmer 6760137) at 15 μg/mL each. Supplementation of the STOP buffer with beads and stopping the reactions were done under reduced light. Prior to the stopping reactions STOP buffer with beads was preincubated for 1 h in the dark at room temperature. After stopping the reactions, plates were incubated for 1 h in the dark at room temperature before reading on a PHERAstar FS plate reader (BMG Labtech) under reduced light.

Pim2 = target: T2, Pim2 (Homo sapiens, UniProt Q9P1W9); experiment: Pim-2 kinase assay (Pim enzyme assays, Example A); settings: 1 mM ATP; read-out: Pim2 IC50
T2 construct: purchased Invitrogen PV3649
T2 sequence (Q9P1W9 whole entry): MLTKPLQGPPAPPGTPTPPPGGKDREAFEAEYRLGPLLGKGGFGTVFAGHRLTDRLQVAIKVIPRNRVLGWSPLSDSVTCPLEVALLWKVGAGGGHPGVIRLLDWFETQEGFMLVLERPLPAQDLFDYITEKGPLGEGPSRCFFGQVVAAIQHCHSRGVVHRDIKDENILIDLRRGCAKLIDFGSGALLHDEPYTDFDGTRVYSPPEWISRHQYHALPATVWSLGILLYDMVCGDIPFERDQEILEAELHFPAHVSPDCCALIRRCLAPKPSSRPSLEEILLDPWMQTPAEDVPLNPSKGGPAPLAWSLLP
Description: Pim-2 kinase assay—20 μL reactions were run in white 384 well polystyrene plates dotted with 0.8 μL compound/DMSO in the assay buffer (50 mM Tris, pH 7.5, 0.01% Tween-20, 5 mM mgCl2, 0.01% BSA, 5 mM DTT), containing 0.05 μM Fluorescein-labeled CREBtide peptide substrate (Invitrogen PV3508), 1 mM ATP, and 1 nM enzyme (Invitrogen PV3649) for 2 h at 25° C. Reactions were stopped by addition of 10 μL TR-FRET Dilution Buffer (Invitrogen PV3574) with 30 mM EDTA and 1.5 nM LanthaScreen Tb-CREB pSer133 antibody (Invitrogen PV3566). After 30 min. incubation at room temperature, plates were read on a PHERAstar FS plate reader (BMG Labtech).

Pim-3 = target: T3, Pim-3 (Homo sapiens, UniProt Q86V86); experiment: Pim-3 kinase assay (Pim enzyme assays, Example A); settings: 1 mM ATP; read-out: Pim3 IC50
T3 construct: purchased Millipore 14-738
Description: as §1

T1 sequence (P11309 whole entry): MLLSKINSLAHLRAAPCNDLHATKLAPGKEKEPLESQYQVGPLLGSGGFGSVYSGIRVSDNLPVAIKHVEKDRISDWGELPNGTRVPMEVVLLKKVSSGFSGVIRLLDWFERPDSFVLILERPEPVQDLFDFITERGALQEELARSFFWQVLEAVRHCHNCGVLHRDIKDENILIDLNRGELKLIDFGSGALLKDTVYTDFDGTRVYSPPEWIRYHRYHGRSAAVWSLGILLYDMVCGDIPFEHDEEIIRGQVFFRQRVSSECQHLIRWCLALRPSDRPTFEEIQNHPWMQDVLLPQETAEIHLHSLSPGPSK

`CCc1ccc2cc(N)c(C(=O)Nc3cnc4c(c3N3CCC[C@H](N)C3)CCC4O)nc2c1` (single isomer, unassigned) [22 isomer 2] was tested. Which pIC50 (Pim-1) did it give?
Its pIC50 is ≥ 7.00.

What about the pIC50 (Pim2) of the same molecule?
The pIC50 was < 5.70.

What about the pIC50 (Pim-3) of the same molecule?
The pIC50 was ≥ 7.00.

Which results are given for `Nc1cc2ccc(C3CCNCC3)cc2nc1C(=O)Nc1cnccc1N1CCC[C@H](N)C1` [Example 1, 3-Amino-N-{4-[(3S)-3-aminopiperidin-1-yl]pyridin-3-yl}-7-piperidin-4-ylquinoline-2-carboxamide]?
pIC50 (Pim-1): ≥ 7.00; pIC50 (Pim2): 6.00 to 7.00; pIC50 (Pim-3): ≥ 7.00

With `Nc1cc2ccc(C3CCOCC3)cc2nc1C(=O)Nc1cnccc1N1CCC[C@H](N)C1` [Example 2, 3-Amino-N-{4-[(3S)-3-aminopiperidin-1-yl]pyridin-3-yl}-7-(tetrahydro-2H-pyran-4-yl)quinoline-2-carboxamide] as the molecule, how does the pIC50 (Pim-1) read?
The pIC50 was ≥ 7.00.

What about the pIC50 (Pim2) of the same molecule?
Its pIC50 is 6.00 to 7.00.

And the pIC50 (Pim-3)?
The pIC50 was ≥ 7.00.

How did the pIC50 (Pim-1) turn out when `Nc1cc2ccc(-c3c(F)cccc3F)cc2nc1C(=O)Nc1cnccc1N1CCC[C@H](N)C1` [Example 3, 3-Amino-N-{4-[(3S)-3-aminopiperidin-1-yl]pyridin-3-yl}-7-(2,6-difluorophenyl)quinoline-2-carboxamide] was run?
Its pIC50 is ≥ 7.00.

And the pIC50 (Pim2)?
Its pIC50 is 6.00 to 7.00.

What about the pIC50 (Pim-3) of the same molecule?
The pIC50 was ≥ 7.00.

How did the pIC50 (Pim-1) turn out when `Cn1nccc1-c1ccc2cc(N)c(C(=O)Nc3cnccc3N3CCC[C@H](N)C3)nc2c1` [Example 4, 3-Amino-N-{4-[(3S)-3-aminopiperidin-1-yl]pyridin-3-yl}-7-(1-methyl-1H-pyrazol-5-yl)quinoline-2-carboxamide] was run?
Its pIC50 is ≥ 7.00.

What about the pIC50 (Pim2) of the same molecule?
Its pIC50 is 5.00 to 6.00.

And the pIC50 (Pim-3)?
Its pIC50 is ≥ 7.00.

How did the pIC50 (Pim-1) turn out when `N#Cc1ccccc1-c1ccc2cc(N)c(C(=O)Nc3cnccc3N3CCC[C@H](N)C3)nc2c1` [Example 5, 3-Amino-N-{4-[(3S)-3-aminopiperidin-1-yl]pyridin-3-yl}-7-(2-cyanophenyl)quinoline-2-carboxamide] was run?
Its pIC50 is ≥ 7.00.

What about the pIC50 (Pim2) of the same molecule?
Its pIC50 is ≥ 7.00.

What about the pIC50 (Pim-3) of the same molecule?
Its pIC50 is ≥ 7.00.

How did the pIC50 (Pim-1) turn out when `N#Cc1cccc(F)c1-c1ccc2cc(N)c(C(=O)Nc3cnccc3N3CCC[C@H](N)C3)nc2c1` [Example 7, 3-Amino-N-{4-[(3S)-3-aminopiperidin-1-yl]pyridin-3-yl}-7-(2-cyano-6-fluorophenyl)quinoline-2-carboxamide] was run?
Its pIC50 is ≥ 7.00.

What about the pIC50 (Pim2) of the same molecule?
Its pIC50 is ≥ 7.00.

And the pIC50 (Pim-3)?
The pIC50 was ≥ 7.00.

How did the pIC50 (Pim-1) turn out when `NC(=O)c1cccc(F)c1-c1ccc2cc(N)c(C(=O)Nc3cnccc3N3CCC[C@H](N)C3)nc2c1` [Example 8, 3-Amino-7-[2-(aminocarbonyl)-6-fluorophenyl]-N-{4-[(3S)-3-aminopiperidin-1-yl]pyridin-3-yl}quinoline-2-carboxamide] was run?
Its pIC50 is < 7.40.

And the pIC50 (Pim2)?
The pIC50 was < 5.70.

What about the pIC50 (Pim-3) of the same molecule?
Its pIC50 is ≥ 7.00.

How did the pIC50 (Pim-1) turn out when `CC(C)c1ccc2cc(N)c(C(=O)Nc3cnccc3N3CCC[C@H](N)C3)nc2c1` [Example 9, 3-Amino-N-{4-[(3S)-3-aminopiperidin-1-yl]pyridin-3-yl}-7-isopropylquinoline-2-carboxamide] was run?
Its pIC50 is ≥ 7.00.

And the pIC50 (Pim2)?
Its pIC50 is ≥ 7.00.

And the pIC50 (Pim-3)?
The pIC50 was ≥ 7.00.

How did the pIC50 (Pim-1) turn out when `CCc1ccc2cc(N)c(C(=O)Nc3cnccc3N3CCC[C@H](N)C3)nc2c1` [Example 10, 3-Amino-N-{4-[(3S)-3-aminopiperidin-1-yl]pyridin-3-yl}-7-ethylquinoline-2-carboxamide] was run?
Its pIC50 is ≥ 7.00.

And the pIC50 (Pim2)?
Its pIC50 is ≥ 7.00.

And the pIC50 (Pim-3)?
Its pIC50 is ≥ 7.00.

With `Nc1cc2ccccc2nc1C(=O)Nc1cnccc1N1CCC[C@H](N)C1` [Example 11, 3-Amino-N-{4-[(3S)-3-aminopiperidin-1-yl]pyridin-3-yl}quinoline-2-carboxamide] as the molecule, how does the pIC50 (Pim-1) read?
Its pIC50 is ≥ 7.00.

And the pIC50 (Pim2)?
Its pIC50 is 6.00 to 7.00.

And the pIC50 (Pim-3)?
The pIC50 was ≥ 7.00.

What does the source list for `Nc1cc2ccc(Br)cc2nc1C(=O)Nc1cnccc1N1CCC[C@H](N)C1` [Example 12, 3-Amino-N-{4-[(3S)-3-aminopiperidin-1-yl]pyridin-3-yl}-7-bromoquinoline-2-carboxamide]?
pIC50 (Pim-1): ≥ 7.00; pIC50 (Pim2): 6.00 to 7.00; pIC50 (Pim-3): ≥ 7.00

Which results are given for `N#CCc1ccc2cc(N)c(C(=O)Nc3cnccc3N3CCC[C@H](N)C3)nc2c1` [Example 13, 3-Amino-N-{4-[(3S)-3-aminopiperidin-1-yl]pyridin-3-yl}-7-(cyanomethyl)quinoline-2-carboxamide]?
pIC50 (Pim-1): ≥ 7.00; pIC50 (Pim2): 6.00 to 7.00; pIC50 (Pim-3): ≥ 7.00

How did the pIC50 (Pim-1) turn out when `CCc1cc2nc(C(=O)Nc3cnccc3N3CCC[C@H](N)C3)c(N)cc2cc1F` [Example 14, 3-Amino-N-{4-[(3S)-3-aminopiperidin-1-yl]pyridin-3-yl}-7-ethyl-6-fluoroquinoline-2-carboxamide] was run?
The pIC50 was ≥ 7.00.

What about the pIC50 (Pim2) of the same molecule?
The pIC50 was 6.00 to 7.00.

What about the pIC50 (Pim-3) of the same molecule?
The pIC50 was ≥ 7.00.

How did the pIC50 (Pim-1) turn out when `CC(O)c1ccc2cc(N)c(C(=O)Nc3cnccc3N3CCC[C@H](N)C3)nc2c1` (stereo partly drawn) [Example 15, 3-Amino-N-{4-[(3S)-3-aminopiperidin-1-yl]pyridin-3-yl}-7-(1-hydroxyethyl)quinoline-2-carboxamide] was run?
The pIC50 was ≥ 7.00.

What about the pIC50 (Pim2) of the same molecule?
Its pIC50 is 6.00 to 7.00.

What about the pIC50 (Pim-3) of the same molecule?
The pIC50 was ≥ 7.00.

With `CC(C)(O)c1ccc2cc(N)c(C(=O)Nc3cnccc3N3CCC[C@H](N)C3)nc2c1` [Example 16, 3-Amino-N-{4-[(3S)-3-aminopiperidin-1-yl]pyridin-3-yl}-7-(1-hydroxy-1-methylethyl)quinoline-2-carboxamide] as the molecule, how does the pIC50 (Pim-1) read?
Its pIC50 is ≥ 7.00.

What about the pIC50 (Pim2) of the same molecule?
The pIC50 was 6.00 to 7.00.

What about the pIC50 (Pim-3) of the same molecule?
The pIC50 was ≥ 7.00.

`Nc1cc2ccc(C(O)c3ccccc3)cc2nc1C(=O)Nc1cnccc1N1CCC[C@H](N)C1` (stereo partly drawn) [Example 17, 3-Amino-N-{4-[(3S)-3-aminopiperidin-1-yl]pyridin-3-yl}-7-[hydroxy(phenyl)methyl]quinoline-2-carboxamide] was tested. Which pIC50 (Pim-1) did it give?
Its pIC50 is ≥ 7.00.

What about the pIC50 (Pim2) of the same molecule?
Its pIC50 is < 5.70.

And the pIC50 (Pim-3)?
Its pIC50 is ≥ 7.00.

`CC(F)c1ccc2cc(N)c(C(=O)Nc3cnccc3N3CCC[C@H](N)C3)nc2c1` (stereo partly drawn) [Example 18, 3-Amino-N-{4-[(3S)-3-aminopiperidin-1-yl]pyridin-3-yl}-7-(1-fluoroethyl)quinoline-2-carboxamide] was tested. Which pIC50 (Pim-1) did it give?
The pIC50 was ≥ 7.00.

What about the pIC50 (Pim2) of the same molecule?
Its pIC50 is 6.00 to 7.00.

What about the pIC50 (Pim-3) of the same molecule?
Its pIC50 is ≥ 7.00.

`Nc1cc2ccc(CN3CCCC3)cc2nc1C(=O)Nc1cnccc1N1CCC[C@H](N)C1` [Example 19, 3-Amino-N-{4-[(3S)-3-aminopiperidin-1-yl]pyridin-3-yl}-7-(pyrrolidin-1-ylmethyl)quinoline-2-carboxamide] was tested. Which pIC50 (Pim-1) did it give?
The pIC50 was ≥ 7.00.

And the pIC50 (Pim2)?
Its pIC50 is < 5.70.

What about the pIC50 (Pim-3) of the same molecule?
The pIC50 was ≥ 7.00.

Which results are given for `CN(C)Cc1ccc2cc(N)c(C(=O)Nc3cnccc3N3CCC[C@H](N)C3)nc2c1` [Example 20, 3-Amino-N-{4-[(3S)-3-aminopiperidin-1-yl]pyridin-3-yl}-7-[(dimethylamino)methyl]quinoline-2-carboxamide]?
pIC50 (Pim-1): ≥ 7.00; pIC50 (Pim2): < 5.70; pIC50 (Pim-3): ≥ 7.00

`CCOc1ccc2cc(N)c(C(=O)Nc3cnccc3N3CCC[C@H](N)C3)nc2n1` [Example 25, 3-Amino-N-{4-[(3S)-3-aminopiperidin-1-yl]pyridin-3-yl}-7-ethoxy-1,8-naphthyridine-2-carboxamide] was tested. Which pIC50 (Pim-1) did it give?
The pIC50 was ≥ 7.00.

And the pIC50 (Pim-3)?
Its pIC50 is ≥ 7.00.

Which results are given for `CCOc1ccc2cc(N)c(C(=O)Nc3cnccc3N3C[C@@H](N)[C@H](O)[C@@H](C)C3)nc2n1` [Example 26, 3-Amino-N-{4-[(3R,4R,5S)-3-amino-4-hydroxy-5-methylpiperidin-1-yl]pyridin-3-yl}-7-ethoxy-1,8-naphthyridine-2-carboxamide]?
pIC50 (Pim-1): ≥ 7.00; pIC50 (Pim-3): ≥ 7.00

How did the pIC50 (Pim-1) turn out when `CCc1cc2nc(C(=O)Nc3cnccc3N3CCC[C@H](N)C3)c(N)cc2cn1` [Example 27, 3-Amino-N-{4-[(3S)-3-aminopiperidin-1-yl]pyridin-3-yl}-7-ethyl-1,6-naphthyridine-2-carboxamide] was run?
The pIC50 was ≥ 7.00.

What about the pIC50 (Pim-3) of the same molecule?
The pIC50 was ≥ 7.00.
